Assay results from US10207982B2, “Solid forms of desvenlafaxine” (ALPARIS, S.A. DE C.V., priority 2016, dated 2019).

Key:
[1] = Dissolution rate test in Wood apparatus, amorphous NSF; type: physicochemical; settings: for Dissolution Rate Constants: 150 mg tablets, 37° C., 50 rpm; for Difference in dissolution rate between dissolution media: pH 1.2 versus pH 6.8; for Dissolution rate as compared to the neutral DSV: FIGS. 4A-4I, different pH values
Experimental: The dissolution rate tests were performed in aqueous media, in a Wood apparatus with 150 mg tablets at 37° C. and 50 rpm in different dissolution media, as shown in Tables 2 and 3.

[2] = Comparative dissolution profiles of five solid phases; type: physicochemical; parameters: Dissolution rate constant k: unit not given here; settings: for Dissolution rate relative to the other shown phases: pH 1.2, 4.5 and 6.8; for Dissolution rate constant k: 37° C., 50 rpm
Experimental: FIG. 14. Dissolution profile in HCl solution (pH 1.2, 37° C., 50 rpm, n=3, ±SD) of the new crystalline solid phase of desvenlafaxine-3,4-dihydroxybenzoic acid (crystalline DSV:3,4-DHB), and comparison with the new amorphous solid phase of desvenlafaxine-3,4-dihydroxybenzoic acid (amorphous DSV:3,4-DHB), the new crystalline solid phase of desvenlafaxine-2,4-dihydroxybenzoic acid (crystalline DSV:2,4-DHB), desvenlafaxine (DSV), and desvenlafaxine succinate (DSV succinate). FIG. 15. Dissolution profile in acetate buffer (pH 4.5, 37° C., 50 rpm, n=3, ±SD) of the new crystalline solid phase of desvenlafaxine-3,4-dihidroxibenzoic acid (crystalline DSV:3,4-DHB), and comparison with the new amorphous solid phase of desvenlafaxine-3,4-dihydroxybenzoic acid (amorphous DSV:3,4-DHB), the new crystalline solid phase of desvenlafaxine-2,4-dihydroxybenzoic acid (crystalline DSV:2,4-DHB), desvenlafaxine (DSV), and desvenlafaxine succinate (DSV succinate). FIG. 16. Dissolution profile in phosphate buffer (pH 6.8, 37° C., 50 rpm, n=3, ±SD) of the new crystalline solid phase of desvenlafaxine-3,4-dihydroxybenzoic acid (crystalline DSV:3,4-DHB), and comparison with the new amorphous solid phase of desvenlafaxine-3,4-dihydroxybenzoic acid (amorphous DSV:3,4-DHB), the new crystalline solid phase of desvenlafaxine-2,4-dihydroxybenzoic acid (crystalline DSV:2,4-DHB), desvenlafaxine (DSV), and desvenlafaxine succinate (DSV succinate). A comparative test was carried out for the dissolution profiles at pH 1.2, 4.5 and 6.8 for the new crystalline phase DSV:3,4-DHB with respect to the amorphous NSF with the same co-former, the crystalline NSF with 2,4-dihydroxybenzoic acid, as well as desvenlafaxine base and the commercial salt (desvenlafaxine succinate).

[3] = Indicative physical stability test (X-ray powder diffraction); type: physicochemical; settings: 40° C., 75% humidity, 30 days
Experimental: The amorphous NSF obtained from DSV:3-HB, DSV:3,4-DHB and DSV:3,4,5-THB were subjected to physical stability tests, wherein the NSF were subjected to temperatures of 45 and 50° C. in dry conditions (no humidity), and to 40° C., 75% humidity for 30 days.

[4] = Thermogravimetric analysis (TGA/DSC) of crystalline NSF; type: physicochemical
Experimental: The compound was observed as stable until 190° C., the temperature at which decomposition starts to occur.
The crystalline NSF of DSV:2,4-DHB was also characterized by X-ray powder diffraction (see FIG. 10), as well as thermogravimetric analysis (TGA/DSC) (see FIG. 11).

[5] = Intrinsic dissolution of the crystalline NSF DSV:3,4-DHB; type: physicochemical
Experimental: Dissolution profiles were assessed for the crystalline NSF of DSV:3,4-DHB. The rate constant values are grouped in Table 6.

[6] = type: physicochemical
Description: Solubility tests could not be determined because the amorphous NSF obtained are very soluble and a large amount is required to saturate the solution.

Row | Dissolution Rate Constants ([1]; pH 1.2) [mg/cm^2 · min] | Difference in dissolution rate between dissolution media [1] | Dissolution Rate Constants ([1]; pH 4.5) [mg/cm^2 · min] | Dissolution Rate Constants ([1]; pH 6.8) [mg/cm^2 · min] | Dissolution Rate Constants ([1]; water) [mg/cm^2 · min] | Dissolution rate as compared to the neutral DSV [1] | Quotient (kNSF/kDSV) ([2]; pH 1.2) | Dissolution rate constant k ([2]; pH 1.2, HCl solution) | Quotient (kNSF/kDSV) ([2]; pH 4.5) | Dissolution rate constant k ([2]; pH 4.5, acetate buffer) | Quotient (kNSF/kDSV) ([2]; pH 6.8) | Dissolution rate constant k ([2]; pH 6.8, phosphate buffer) | Physical stability [3] | Stable until, temperature at which decomposition starts [4] | Intrinsic dissolution rate constant k ([5]; pH 1.2) [mg/cm2 · min] | Intrinsic dissolution rate constant k ([5]; pH 4.5) [mg/cm2 · min] | Intrinsic dissolution rate constant k ([5]; pH 6.8) [mg/cm2 · min] | Solubility [6] | SMILES | Dissolution rate relative to the other shown phases [2]
1 | 6.9 | 14 times higher | 1.2 | 0.5 | 0.0 | – | – | – | – | – | – | – | – | – | – | – | – | – | CN(C)CC(c1ccc(O)cc1)C1(O)CCCCC1 (racemic) [DSV, (±)-1-[2-(dimethylamino)-1-(4-hydroxyphenyl)ethyl]cyclohexanol, reference compound] | –
2 | 4.4 | lower or almost null difference | 5.0 | 5.7 | 2.3 | higher dissolution rate | 5.0 | 6.69 | 18.4 | 6.81 | 17.0 | 5.45 | only possible to characterize | – | – | – | – | – | CN(C)CC(c1ccc(O)cc1)C1(O)CCCCC1.O=C(O)c1ccc(O)c(O)c1 (centres unmarked) [Amorphous DSV:3,4-DHB, desvenlafaxine-3,4-dihydroxybenzoic acid] | the higher dissolution rate
3 | – | – | – | – | – | – | 0.79 | 1.07 | 0.94 | 0.35 | 0.71 | 0.23 | – | about 150 °C | – | – | – | – | CN(C)CC(c1ccc(O)cc1)C1(O)CCCCC1.O=C(O)c1ccc(O)cc1O (centres unmarked) [Crystalline DSV:2,4-DHB, desvenlafaxine-2,4-dihydroxybenzoic acid] | lower dissolution rate than the commercial salt (succinate) and any of the other shown phases
4 | – | – | – | – | – | – | 1.8 | 2.47 | 5.9 | 2.19 | 4.8 | 1.54 | – | 190 °C | 2.48 | 2.19 | 1.43 | – | CN(C)CC(c1ccc(O)cc1)C1(O)CCCCC1.O=C(O)c1ccc(O)c(O)c1 (centres unmarked) [Crystalline DSV:3,4-DHB, 3,4-dihydroxybenzoate salt of anhydrous desvenlafaxine] | –
5 | – | – | – | – | – | – | 2.1 | – | 6.9 | – | 10.0 | – | – | – | – | – | – | – | CN(C)CC(c1ccc(O)cc1)C1(O)CCCCC1 (centres unmarked) [DSV-Succinate, desvenlafaxine succinate, reference compound] | –
6 | 5.4 | – | 6.1 | 9.0 | 1.6 | higher dissolution rate | – | – | – | – | – | – | – | – | – | – | – | the solution did not become saturated | CN(C)CC(c1ccc(O)cc1)C1(O)CCCCC1.O=C(O)c1cc(O)c(O)c(O)c1 (centres unmarked) [DSV:3,4,5-THB, desvenlafaxine-3,4,5-trihydroxybenzoic acid] | –
7 | 5.8 | – | 6.1 | 5.4 | 3.8 | – | – | – | – | – | – | – | – | – | – | – | – | – | CN(C)CC(c1ccc(O)cc1)C1(O)CCCCC1.O=C(O)c1cccc(O)c1 (centres unmarked) [DSV:3-HB, desvenlafaxine-3-hydroxybenzoic acid] | –
